We go through two compounds from patent publication US5858985A, “Treatment of asthma with fructose-1,6-diphosphate” (priority 1997, dated 1999).

Series [1] has as its system human test subject with chronic cough. The series can be described thus: repeated FDP inhalation in a volunteer with chronic cough secondary to allergic bronchitis. It is filed as in vivo. From the text:
This subject participated in several studies over 10 days. Prior to FDP inhalation, their baseline PEFR was 390 L/min. This value increased with each and every FDP treatment.

Series [2] deals with RNA encoding the IL-2 protein. The series can be described thus: IL-2 RNA expression in ConA-stimulated lymphocytes (reverse transcription, PCR, densitometry). As to conditions: rat lymphocytes pre-treated with FDP, ConA stimulation, 5 days of incubation. Type of series: cell-based. The method, then:
The Applicant also investigated the expression of cytokines by T-lymphocytes. Isolated lymphocytes were obtained from rats, and incubated with stimulation by ConA treatment, as described above; treated cells were pre-treated with FDP, as described above, while control cells were not treated with FDP. After 5 days of incubation, RNA was extracted from the lymphocytes, using RNA-stat60. The integrity of RNA samples was evaluated by use of agarose-formaldehyde gel electrophoresis, and its quantity was determined spectrophotometrically.
The RNA was transcribed into complementary DNA (cDNA), using a reverse transcriptase enzyme. 10 μl of solution containing 1 μg of total cellular RNA was heated at 65° C. for 10 min, and then chilled on ice. To this solution was added 10 μl of a mixture containing 2× reverse transcriptase buffer (100 mM Tris-HCl, pH 8.3, 150 mM KC1, 6 MM MgCl2), 1 μg oligo(dT)12-18, 100 μg/ml of acetylated bovine serum albumin, 0.5 mM mixed deoxynucleotides (dNTP), 10 units of RNAasin, and 100 units of MMLV reverse transcriptase enzyme. The mixture was incubated for 45 min at 35° C., then chilled on ice.
The cDNA sequences for three specific interleukins (IL-1, IL-2, and IL-6) were then amplified, using polymerase chain reaction (PCR) techniques, using previously published sense and anti-sense primer sequences for rat IL-1, rat IL-2, and rat IL-6. […]

In series [3] the test system is membrane-bonded Na+--K+ ATPase enzymes. Type of series: biochemical, rat. The note with it: pretreatment with 500 μM FDP.
Experimental: Oleander toxins were prepared by air-drying leaves from red-flowering Nerium oleander plants for 4 days, pulverizing the leaves to a fine powder in a blender, and extracting the leaves in a 95% ethyl alcohol solution for 10 days. After extraction, the tincture was filtered, and part of the alcohol solvent was removed by flash evaporation, to a volume where 1 gram of crude drug was equal to 1 ml of alcohol solution. The extract was stored as a stock solution at 0° C., and periodically analyzed for alkaloid content by high pressure liquid chromatography, using oleandrin as an external standard. […]
When ready for use, intact isolated rat hearts were transferred to ice-cold homogenizing medium (50 mM Na2 HPO4, 10 mM Na2 EDTA, and 25 mM NaF, pH 7.4). […]
The pellet obtained after this centrifugation, consisting of crude membrane vesicles, was suspended in a storage buffer (30 mM histidine, 0.25 M sucrose, 10 mM EDTA, and 10 mM NaF, pH 7.5) and stored at -80° C. until use. Protein content was determined using a Biorad protein assay kit, with gamma globulin as a standard.
The Na^+ --K^+ ATPase activity levels for these sarcolemmal membrane preparations was determined calorimetrically by measuring how much inorganic phosphate (Pi) was liberated when the ATPase enzyme hydrolyzed ATP to release phosphate groups. […]
For the next series, the system named is rat T-lymphocyte. The series can be described thus: inhibition of T-lymphocyte proliferation after stimulation with Con-A ((3H)-thymidine incorporation). Type of series: cell-based. The method, then: Lymphocyte cells were isolated either from human venous blood or rat spleen. The cells were suspended in Dulbecco's media. A manual cell count was done using 0.1 ml of Trypan blue and 0.1 ml of the cell media mixture. […] Tissue culture multi-well plates were used for incubation and in each well 0.1 ml of cell suspension was placed. To the FDP treatment wells (in triplicate) were added 0.1 ml of FDP from 10% stock solution, in serial dilutions which included 1:10, 1:100, 1:250, 1:500; 1:1000, and 1:10000). Cyclosporine treatment wells received 0.1 ml cyclosporine A, at various concentrations including 500 ng/ml, 50 ng/ml; 5 ng/ml and 0.5 ng/ml. All wells except control wells received concanavalin A (conA) at […] (0.01 ml). The final volume for all wells was 0.21 ml.
After incubation, the cells were pulsed in 5% Co2 at 37° C. with 1 μCi of (^3 H)-thymidine (i.e., the cells were incubated for a controlled period of time with thymidine, one of the building blocks of DNA, which contained tritium, a radioactive isotope of hydrogen). The cells were harvested, and washed to remove any tritiated thymidine that had not been incorporated into new DNA. The radioactivity levels of the treated cells were then measured, using a scintillation counter. The results, in Table 2, are reported as counts/min.
On the technique in general: Incorporation of labelled thymidine or its analogues reports DNA synthesis.

Another series deals with human volunteers. The series can be described thus: lung function (peak expiratory flow rate) in healthy human volunteers after nebulized inhalation. It is filed as in vivo. How it is done: When adjusted to deliver 56-68 L/min with a 5-6 L/min oxygen flow, the final oxygen content was 28%. The output tube from the nebulizer was connected to a standard face mask, which was placed on the face of the subject. The bottle of the nebulizer contained 100 ml of the FDP solution. The FDP dose delivered in the mist, during the 5 consecutive breaths, was calculated to be about 12 mg.
Prior to the FDP inhalation, in each volunteer, 3 consecutive peak expiratory flow rate (PEFR) measurements were made with the aid of an Astech Peak Flow Meter (Center Laboratories, Port Washington, N.Y. 11050). Briefly, these tests involved having each volunteer take as deep a breath as possible, and then blow as hard as possible into the meter. This was done over a period of a couple of minutes, giving the volunteer some time to catch their breath before and after each effort. The mean of these three measurements was considered as the baseline PEFR value for that person. Baseline heart rates, systolic and diastolic blood pressures, and body temperatures were also measured.
FDP inhalations (5 breaths in each set) were then made, approximately 15, 30, 45, 75, 105 and 165 minutes after the baseline measurements had been made. On several occasions, FDP inhalations were also made, 2 and 5 minutes after the baseline measurements were taken. After each such inhalation, three different expirations were measured, all within a couple of minutes after the FDP inhalation had been completed. The various measurements made after FDP inhalation were compared with the baseline values, before FDP administration. The t-test was used to compare paired observations, and differences were considered significant only when the two-tailed p value was <0.05.

Series [4] relates to Sprague-Dawley rats injected with compound 48/80. The series can be described thus: compound 48/80-induced shock (histamine release by mast cells) in rats. It is filed as in vivo, rat. The method, then: As noted above, the release of histamine by mast cells plays a significant role in aggravating asthma attacks. FDP was evaluated to determine whether it could help suppress histamine release by mast cells, in tests that use a compound called "48/80", which is known to trigger the release of histamine by mast cells. This compound, if injected into an animal at an appropriate dosage, will trigger sufficient histamine release to send the animal into anaphylactic shock, which poses a lethal challenge. Useful physiological measurements can be made during the test period, and if mortality is studied as an endpoint, an animal is deemed to survive if it lives for 48 hours after injection of the 48/80 compound.
Anesthetized male Sprague-Dawley rats (n=20) weighing 448±7.4 gm were randomly assigned into 2 groups. Animals in the FDP-treated group were injected intraperitoneally (IP) with a 10% (w/v) solution of FDP in water, at a dosage of 2.5 gm/kg (i.e., 2.5 grams of FDP per kilogram of body weight). […] Thirty minutes later, all rats were injected IP with compound 48/80, at 5 mg/kg.

A further series relates to human IL-2. The series can be described thus: interleukin-2 production by human T-cells stimulated by Con-A (ELISA). It is filed as cell-based. As to conditions: all tested FDP concentrations, result in words. How it is done: In addition, the amounts of IL-2 released by human T-cells were also evaluated, using ConA stimulation in the presence or absence of FDP. These tests used a commercially available human immunoassay kit (Inter Test-2X IL-2 Elisa Kit, sold by Genzyme Corp., Cambridge, Mass.) which uses monoclonal antibodies that bind specifically to human IL-2. The results, in Table 3, indicate that FDP, at all tested concentrations, abolished IL-2 production by the stimulated human T-lymphocytes. IL-2 concentrations are expressed in picograms per milliliter of media.
(In general: An ELISA detects its analyte on a solid surface through an enzyme-linked reagent.)

Series [5] relates to mongrel dogs challenged with methacholine. The series can be described thus: acute experimental asthma (bronchospasm) induced in dogs by methacholine inhalation. Type of series: in vivo, dog.
The mark [6] stands for this setting: one subject, reported after 10 days of FDP inhalations.

Several values for one entry are separate records, joined by “and”; a condition that tells them apart may be missing. Equal values may be shown once. Entries after “also recorded” stand apart in the source; their conditions may differ. Read-outs that look alike come from different tables or passages of the source.

In general, mortality refers to the share of the test organisms that died.

As for `O=C(COP(=O)(O)O)[C@@H](O)[C@H](O)[C@H](O)COP(=O)(O)O` [FDP, fructose-1,6-diphosphate], the “PEFR at 10 days after the first inhalation” value in series [1] (one subject with chronic cough, repeated FDP inhalation, baseline 390, P<0.01) was determined as 520 L/min. Also, the breathing result in series [1] (setting [6]) is “substantially improved”. The coughing result in series [1] (setting [6]) is reported as “nearly disappeared”. Moreover, the “RNA encoding the IL-2 protein” value in series [2] is “no detectable levels of RNA encoding the IL-2 protein”. The “Na+--K+ ATPase activity” value is 19.32 ± 0.62 micromoles of inorganic phosph in series [3] (oleander extract 1.0 mg) and 15.75 ± 0.39 micromoles of inorganic phosph in series [3] (oleander extract 2.0 mg). Besides, the “Activation Index” value in the series with rat T-lymphocyte (Con-A plus 1:10 dilution of 10% FDP stock, Con-A alone 30718 ± 4316, no Con-A 527 ± 139) is reported as 101 ± 16 counts/min; in the series on rat T-lymphocyte (Con-A plus 1:100 dilution of 10% FDP stock), 190 ± 42 counts/min; in the series on rat T-lymphocyte (Con-A plus 1:250 dilution of 10% FDP stock), 383 ± 170 counts/min; with rat T-lymphocyte (Con-A plus 1:500 dilution of 10% FDP stock), 3592 ± 974 counts/min; in the series on rat T-lymphocyte (Con-A plus 1:1000 dilution of 10% FDP stock) it was 12288 ± 1880 counts/min; with rat T-lymphocyte (Con-A plus 1:10,000 dilution of 10% FDP stock), 19046 ± 3237 counts/min. Besides, in the series with rat T-lymphocyte (result in words, cyclosporine A tested at 0.5 to 500 ng/ml), the “ConA-induced activation and proliferation of T-cells” value is “able to block ConA activation of the lymphocytes; also recorded: inhibited the ConA-induced activation and proliferation of T-cells in a dose dependent manner”. Besides, the side effects entry with human volunteers (all tests on volunteers, other than decreased heart rates and increased pulmonary ventilation rates) is on record as “no side effects were noticed”; in the series on human volunteers (one volunteer, high dosages (700 to 750 mg, 20% or 10% solution, ten minute inhalation)) it was “no side effects were detected”. In addition, the “blood pressure or body temperature” value in the series with human volunteers (five volunteers, 10% FDP nebulized) is given as “did not elicit any changes”. Besides, the “mean peak expiratory flow rate (PEFR) following FDP administration” value in the series with human volunteers (five volunteers, 10% FDP nebulized, 5 breaths (about 12 mg), baseline 471±29.6, P<0.005) came out at 529 ± 35.6 L/min. The “PEFR after inhalation session” value in the series with human volunteers (one volunteer, 20% FDP solution for 10 min, 700 mg inhaled, baseline 616) was found to be 667 L/min. Besides, the arterial pressure entry in series [4] (FDP 2.5 gm/kg IP 30 min before compound 48/80 5 mg/kg IP, vs saline group, P<0.005, FIG. 1) is listed as “significantly higher than in the saline group”. In addition, the mortality in series [4] (FDP 2.5 gm/kg IP before compound 48/80 5 mg/kg IP, survival = 48 hours, saline group 100%, P<0.001) came out at 20%. The plasma potassium entry in series [4] (FDP 2.5 gm/kg IP before compound 48/80 5 mg/kg IP, vs saline group, P<0.01, FIG. 2, 5 mg/kg) was “remained within normal values; also recorded: lower”. Further, the “average arterial partial pressure of oxygen (PO2)” value in series [4] (FDP 2.5 gm/kg IP before compound 48/80, saline group 98±9.2) amounted to 121±6.1 mm Hg. Also, the “IL-2 production by the stimulated human T-lymphocytes” value with human IL-2 was “no detectable IL-2”. The “arterial blood oxygen partial pressure, Baseline” value in series [5] (dogs pre-treated with aerosolized 10% FDP for 3 minutes, before methacholine) is 89 ± 1.74 mm Hg. In addition, the “arterial blood oxygen partial pressure (PaO2), 5 min” value in series [5] (dogs pre-treated with aerosolized 10% FDP, 5 min after methacholine, controls 47 ± 2.85, p = 0.007) is 70±5.62 mm Hg and 69 ± 6.49 mm Hg. Besides, the “arterial blood oxygen partial pressure (PaO2), 15 min” value in series [5] (dogs pre-treated with aerosolized 10% FDP, 15 min after methacholine, controls 53 ± 3.86, p < 0.001) amounted to 81 ± 3.36 mm Hg. In addition, the PCO2 result in series [5] (dogs, methacholine challenge with FDP treatment) is “no consistent alterations”. In series [5] (five dogs treated with FDP after (not before) methacholine, p<0.006), the “PaO2 level at 5 minutes after FDP treatment” value is reported as 64±4.26 mm Hg. In addition, the “PaO2 level at 30 minutes after FDP treatment” value in series [5] (five dogs treated with FDP after (not before) methacholine, p<0.01) is given as 80±4.04 mm Hg. In addition, the “PaO2 level at 15 minutes after FDP treatment” value in series [5] (five dogs treated with FDP after (not before) methacholine, p<0.02) is recorded as 72±1.84 mm Hg.

albuterol sulfate [reference compound]: the PEFR result in the series with human volunteers (albuterol sulfate inhalation solution 0.005% w/v in 0.9% NaCl, two occasions, identical procedures) was “did not induce any significant change”.
